The results in this text go back to paper PMC6829886, “Inhibition of Non-Small Cell Lung Cancer Cells by Oxy210, an Oxysterol-Derivative that Antagonizes TGFβ and Hedgehog Signaling” (Cells, 2019).

The experiment has as its system Gli responsive luciferase reporter (endogenous Gli). Briefly: Gli responsive luciferase reporter in Sufu-/- cells. Type of experiment: cell-based, mouse. To be noted: 72 hrs. The procedure: NIH3T3-E1 cells cultured in 24 well-plates at 90% confluence were transiently transfected with 0.1 μg of Smad response-element reporter (SBE-Luciferase) plasmid (Qiagen), or with 0.1 μg of Gli response-element reporter (pGL3b-8xGli-Luciferase) plasmid, and 10 ng of pSV40-Renilla-Luciferase plasmid (Promega, Madison, WI, USA) with or without co-transfection with 10ng of Gli1 overexpression vector, pSRα-Gli1 using a Lipofectamine LTX Plus transfection reagent, as previously described. Sufu-/- cells cultured in 24 well-plates at 90% confluence were transiently transfected with 0.1μg of pGL3b-8xGli-Luciferase plasmid, and 10 ng of pSV40-Renilla-Luciferase plasmid. 6 hrs after transfection, cells were treated with test agents for 72 h. […] Then the firefly and Renilla luciferase activities were measured using a dual luciferase kit (Promega) and a GloMax-96 Microplate Luminometer (Promega) or a plate reader-SpectraMax iD3 (Molecular Devices, San Jose, CA, USA). […]
Figure 5 Oxy210 acts downstream of Smo. […] After 72 h, RNA was extracted and analyzed by Q-RT-PCR for the expression of Hh target genes Gli1 and Hip, normalized to Oaz1 expression. […] Luciferase activity was measured and normalized to the Renilla luciferase activity. […]
(Reporter assays use an easily measured gene product as a stand-in for the process of interest.)

Structures are written as SMILES.

For `C[C@]12CC[C@H]3[C@@H](CC=C4C[C@@H](O)CC[C@@]43C)[C@@H]1CC[C@@H]2[C@](C)(O)CCc1cccnc1` [Oxy210, (3S,8S,9S,10R,13S,14S,17S)-17-((R)-2-hydroxy-4-(pyridin-3-yl)butan-2-yl)-10,13-dimethyl-2,3,4,7,8,9,10,11,12,13,14,15,16,17-tetradecahydro-1H-cyclopenta[a]phenanthren-3-ol], the “activity of Gli responsive luciferase reporter” value is reported as “significantly inhibited”.
